The target in experiment [1] is T1, P-glycoprotein (PGP) (Cricetulus griseus, UniProt P21448).
T1 construct: gene ABCB1; highly purified PGP from CHR B30 cells, labelled with MIANS at two conserved cysteine residues within the Walker A motifs
Briefly: MIANS-PGP fluorescence quenching titration. It counts as binding.

Experiment [2] addresses T2, ABC transporter YvcC (Bacillus subtilis, UniProt O06967).
T2 construct: gene bmrA
T2 sequence (O06967 1-589): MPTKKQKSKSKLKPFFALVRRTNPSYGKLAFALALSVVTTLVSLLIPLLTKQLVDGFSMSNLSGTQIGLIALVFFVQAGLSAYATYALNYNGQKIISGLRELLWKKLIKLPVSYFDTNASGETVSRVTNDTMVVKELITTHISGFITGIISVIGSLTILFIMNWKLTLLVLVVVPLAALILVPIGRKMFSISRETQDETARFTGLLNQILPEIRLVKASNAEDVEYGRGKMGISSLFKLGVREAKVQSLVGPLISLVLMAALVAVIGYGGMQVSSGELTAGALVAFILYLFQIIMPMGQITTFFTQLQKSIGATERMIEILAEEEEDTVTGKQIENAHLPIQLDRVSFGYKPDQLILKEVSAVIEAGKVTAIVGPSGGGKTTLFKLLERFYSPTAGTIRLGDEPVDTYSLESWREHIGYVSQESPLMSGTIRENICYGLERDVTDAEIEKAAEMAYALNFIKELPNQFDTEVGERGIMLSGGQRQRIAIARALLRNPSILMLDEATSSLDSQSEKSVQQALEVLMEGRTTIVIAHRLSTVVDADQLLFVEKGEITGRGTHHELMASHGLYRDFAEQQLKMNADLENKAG
Description: binding Kd (data not shown; method not stated).

Each structure is given as a SMILES string.

T1 sequence (P21448 whole entry): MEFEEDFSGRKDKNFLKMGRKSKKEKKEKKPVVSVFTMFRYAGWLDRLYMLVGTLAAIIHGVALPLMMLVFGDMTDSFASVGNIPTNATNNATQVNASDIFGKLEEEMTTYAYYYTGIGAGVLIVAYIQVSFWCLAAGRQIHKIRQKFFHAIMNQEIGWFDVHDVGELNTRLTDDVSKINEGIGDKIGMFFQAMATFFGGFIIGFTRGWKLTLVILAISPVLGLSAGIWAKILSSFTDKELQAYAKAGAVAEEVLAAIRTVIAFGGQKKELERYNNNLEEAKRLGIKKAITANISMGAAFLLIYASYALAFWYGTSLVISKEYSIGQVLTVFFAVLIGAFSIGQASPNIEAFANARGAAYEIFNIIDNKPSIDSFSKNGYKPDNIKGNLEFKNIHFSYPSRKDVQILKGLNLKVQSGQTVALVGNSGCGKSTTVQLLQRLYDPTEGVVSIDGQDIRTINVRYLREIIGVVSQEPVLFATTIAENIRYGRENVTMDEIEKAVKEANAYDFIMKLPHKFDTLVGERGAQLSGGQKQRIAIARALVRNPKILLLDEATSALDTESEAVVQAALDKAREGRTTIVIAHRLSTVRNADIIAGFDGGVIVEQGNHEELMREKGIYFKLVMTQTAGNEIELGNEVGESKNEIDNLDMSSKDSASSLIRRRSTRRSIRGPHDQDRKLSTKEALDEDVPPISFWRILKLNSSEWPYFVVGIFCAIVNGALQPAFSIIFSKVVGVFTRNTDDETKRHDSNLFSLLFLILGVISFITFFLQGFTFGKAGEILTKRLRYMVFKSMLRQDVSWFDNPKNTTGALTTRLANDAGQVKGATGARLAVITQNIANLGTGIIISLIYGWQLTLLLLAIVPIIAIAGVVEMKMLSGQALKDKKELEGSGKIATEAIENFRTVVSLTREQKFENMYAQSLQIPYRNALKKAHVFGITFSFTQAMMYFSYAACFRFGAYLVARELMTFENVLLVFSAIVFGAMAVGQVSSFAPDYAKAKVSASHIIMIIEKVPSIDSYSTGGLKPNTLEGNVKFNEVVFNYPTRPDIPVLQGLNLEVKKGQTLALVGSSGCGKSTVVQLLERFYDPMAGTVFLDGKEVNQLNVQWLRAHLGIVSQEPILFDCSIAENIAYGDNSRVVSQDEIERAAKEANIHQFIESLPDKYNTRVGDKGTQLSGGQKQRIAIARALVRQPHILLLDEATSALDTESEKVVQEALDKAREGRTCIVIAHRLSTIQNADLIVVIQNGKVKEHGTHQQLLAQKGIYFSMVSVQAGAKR

Regarding `CCCCCCCCCCCCCCCCOP(=O)([O-])OCC[N+](C)(C)C` [miltefosine], the results for the Kd in experiment [1] and in experiment [2] were about 7 µM and 2 to 3 µM, respectively.
